Source: publication PMC9653409, “Generative deep learning enables the discovery of a potent and selective RIPK1 inhibitor” (Nature Communications, 2022)
Where two headings read alike, the source gives them in different places.

Legend:
Assay in all cases: Kinase inhibitory activity profiling of RI-962@10 µM (406 kinases, Eurofins)
Assay type in all cases: biochemical
[1] = target: panel of human kinases (kinase named in endpoint) (Homo sapiens, UniProt O15146); conditions: 10 µM; read-out: Activity (%), MuSK(h)
Description: (§1) In vitro kinase activity assays were conducted through the Kinase Profiling Services provided by Eurofins (Eurofins, France). The protocol for the RIPK1 assay is briefly described as follows (Protocols for other kinases are very similar and can be found in http://www.eurofins.com/pharmadiscovery). RIPK1 kinase was incubated with the test compound in assay buffer containing 8 mM MOPS (pH 7.0), 0.2 mM EDTA, 250 μM […], 10 mM magnesium acetate, and 10 μM [γ-33P]-ATP for 15 min at room temperature. The reaction was initiated by the addition of the Mg/ATP mixture. After incubation for 40 min at room temperature, and the reaction was stopped by the addition of 3% phosphoric acid. A 10 μL portion of the reaction mixture was then spotted onto a P30 filter mat and washed four times for 4 min in 0.425% phosphoric acid and once in methanol prior to drying and scintillation counting.

[2] = target: panel of human kinases (kinase named in endpoint) (Homo sapiens, UniProt O43781); conditions: 10 µM; read-out: Activity (%), DYRK3(h)
Description: as §1

[3] = target: panel of human kinases (kinase named in endpoint) (Homo sapiens, UniProt O96013); conditions: 10 µM; read-out: Activity (%), PAK4(h)
Description: as §1

[4] = target: panel of human kinases (kinase named in endpoint) (Homo sapiens, UniProt P00533); conditions: 10 µM; read-out: Activity (%), EGFR(h)
Description: as §1

[5] = target: panel of human kinases (kinase named in endpoint) (Homo sapiens, UniProt P10721, V654A); conditions: 10 µM; read-out: Activity (%), cKit(V654A)(h)
Description: as §1

[6] = target: panel of human kinases (kinase named in endpoint) (Homo sapiens, UniProt P21802, N549H); conditions: 10 µM; read-out: Activity (%), FGFR2(N549H)(h)
Description: as §1

[7] = target: panel of human kinases (kinase named in endpoint) (Homo sapiens, UniProt P22694); conditions: 10 µM; read-out: Activity (%), PKAcβ(h)
Description: as §1

[8] = target: panel of human kinases (kinase named in endpoint) (Homo sapiens, UniProt P33981); conditions: 10 µM; read-out: Activity (%), TTK(h)
Description: as §1

[9] = target: panel of human kinases (kinase named in endpoint) (Homo sapiens, UniProt P42336); conditions: 10 µM
Description: as §1

[10] = target: panel of human kinases (kinase named in endpoint) (Homo sapiens, UniProt P43405); conditions: 10 µM; read-out: Activity (%), Syk(h)
Description: as §1

[11] = target: panel of human kinases (kinase named in endpoint) (Homo sapiens, UniProt P51956); conditions: 10 µM; read-out: Activity (%), NEK3(h)
Description: as §1

[12] = target: panel of human kinases (kinase named in endpoint) (Homo sapiens, UniProt P78362); conditions: 10 µM; read-out: Activity (%), SRPK2(h)
Description: as §1

[13] = target: panel of human kinases (kinase named in endpoint) (Homo sapiens, UniProt Q13131); conditions: 10 µM; read-out: Activity (%), AMPKα1(h)
Description: as §1

[14] = target: panel of human kinases (kinase named in endpoint) (Homo sapiens, UniProt Q13153); conditions: 10 µM; read-out: Activity (%), PAK1(h)
Description: as §1

[15] = target: panel of human kinases (kinase named in endpoint) (Homo sapiens, UniProt Q13177); conditions: 10 µM; read-out: Activity (%), PAK2(h)
Description: as §1

[16] = target: panel of human kinases (kinase named in endpoint) (Homo sapiens, UniProt Q15418); conditions: 10 µM; read-out: Activity (%), Rsk1(h)
Description: as §1

[17] = target: panel of human kinases (kinase named in endpoint) (Homo sapiens, UniProt Q16512); conditions: 10 µM; read-out: Activity (%), PRK1(h)
Description: as §1

[18] = target: panel of human kinases (kinase named in endpoint) (Homo sapiens, UniProt Q8IYT8); conditions: 10 µM; read-out: Activity (%), ULK2(h)
Description: as §1

[19] = target: panel of human kinases (kinase named in endpoint) (Homo sapiens, UniProt Q96BR1); conditions: 10 µM; read-out: Activity (%), SGK3(h)
Description: as §1

[20] = target: panel of human kinases (kinase named in endpoint) (Homo sapiens, UniProt Q9HBY8); conditions: 10 µM; read-out: Activity (%), SGK2(h)
Description: as §1

[21] = target: panel of human kinases (kinase named in endpoint) (Homo sapiens, UniProt Q9NYL2); conditions: 10 µM; read-out: Activity (%), ZAK(h)
Description: as §1

[22] = target: panel of human kinases (kinase named in endpoint) (Homo sapiens, UniProt Q9P0L2); conditions: 10 µM; read-out: Activity (%), MARK1(h)
Description: as §1

[23] = target: panel of human kinases (kinase named in endpoint) (Homo sapiens, UniProt Q9P2K8); conditions: 10 µM; read-out: Activity (%), GCN2(h)
Description: as §1

[24] = target: panel of human kinases (kinase named in endpoint) (Homo sapiens, UniProt Q9UKE5); conditions: 10 µM; read-out: Activity (%), TNIK(h)
Description: as §1

[25] = target: panel of human kinases (kinase named in endpoint) (Homo sapiens, UniProt Q9Y6E0); conditions: 10 µM; read-out: Activity (%), MST3(h)
Description: as §1

Chain of panel of human kinases (kinase named in endpoint) (Homo sapiens, UniProt P42336) (P42336 whole entry): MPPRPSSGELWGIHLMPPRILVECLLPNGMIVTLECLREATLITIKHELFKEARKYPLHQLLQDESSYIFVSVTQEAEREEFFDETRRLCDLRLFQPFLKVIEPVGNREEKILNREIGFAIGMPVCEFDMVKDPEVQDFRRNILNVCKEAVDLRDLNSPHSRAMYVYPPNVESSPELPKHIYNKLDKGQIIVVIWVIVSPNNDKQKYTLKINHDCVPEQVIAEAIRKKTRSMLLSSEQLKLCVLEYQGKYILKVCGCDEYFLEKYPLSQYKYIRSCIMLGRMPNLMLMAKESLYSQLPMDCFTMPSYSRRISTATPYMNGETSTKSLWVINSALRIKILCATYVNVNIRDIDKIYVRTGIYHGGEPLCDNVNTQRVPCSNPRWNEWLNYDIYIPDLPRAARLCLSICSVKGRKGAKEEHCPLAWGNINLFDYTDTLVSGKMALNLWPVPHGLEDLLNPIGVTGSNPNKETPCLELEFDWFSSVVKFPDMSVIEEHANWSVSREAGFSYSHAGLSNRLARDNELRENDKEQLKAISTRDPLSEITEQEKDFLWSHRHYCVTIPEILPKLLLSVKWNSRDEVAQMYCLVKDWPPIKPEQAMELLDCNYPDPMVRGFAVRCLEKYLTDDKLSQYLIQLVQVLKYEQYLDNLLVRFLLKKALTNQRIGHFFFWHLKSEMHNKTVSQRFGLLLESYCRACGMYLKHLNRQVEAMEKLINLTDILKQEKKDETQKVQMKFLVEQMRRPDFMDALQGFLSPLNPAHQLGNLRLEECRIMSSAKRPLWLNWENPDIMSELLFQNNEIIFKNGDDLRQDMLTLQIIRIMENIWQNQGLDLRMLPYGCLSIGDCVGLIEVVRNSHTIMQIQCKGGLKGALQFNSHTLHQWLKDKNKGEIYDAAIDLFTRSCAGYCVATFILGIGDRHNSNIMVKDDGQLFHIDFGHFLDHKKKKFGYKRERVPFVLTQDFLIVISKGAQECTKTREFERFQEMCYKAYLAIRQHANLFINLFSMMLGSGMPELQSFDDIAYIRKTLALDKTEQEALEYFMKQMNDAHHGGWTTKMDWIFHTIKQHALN
Chain of panel of human kinases (kinase named in endpoint) (Homo sapiens, UniProt P21802, N549H) (P21802 22-821 N549H): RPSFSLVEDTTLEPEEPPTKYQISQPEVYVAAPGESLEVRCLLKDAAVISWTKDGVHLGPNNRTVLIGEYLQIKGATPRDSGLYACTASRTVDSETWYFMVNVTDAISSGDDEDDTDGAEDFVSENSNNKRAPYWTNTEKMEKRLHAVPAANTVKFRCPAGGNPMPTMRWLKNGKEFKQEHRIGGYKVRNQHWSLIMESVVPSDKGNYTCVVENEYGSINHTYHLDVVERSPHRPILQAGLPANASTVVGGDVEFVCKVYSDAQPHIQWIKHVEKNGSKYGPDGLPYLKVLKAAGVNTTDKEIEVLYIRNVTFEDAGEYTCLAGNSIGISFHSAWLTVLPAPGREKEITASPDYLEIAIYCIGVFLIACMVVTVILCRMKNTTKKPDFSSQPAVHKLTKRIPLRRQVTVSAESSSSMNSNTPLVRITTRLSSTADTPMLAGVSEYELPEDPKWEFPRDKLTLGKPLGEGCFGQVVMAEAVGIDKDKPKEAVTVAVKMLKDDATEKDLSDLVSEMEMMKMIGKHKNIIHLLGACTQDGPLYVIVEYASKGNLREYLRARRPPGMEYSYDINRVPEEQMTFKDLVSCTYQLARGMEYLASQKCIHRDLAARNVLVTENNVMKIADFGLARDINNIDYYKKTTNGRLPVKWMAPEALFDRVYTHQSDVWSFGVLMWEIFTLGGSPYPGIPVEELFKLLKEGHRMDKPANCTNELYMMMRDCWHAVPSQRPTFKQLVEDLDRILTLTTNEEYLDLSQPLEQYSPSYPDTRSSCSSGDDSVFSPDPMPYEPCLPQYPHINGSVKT
Chain of panel of human kinases (kinase named in endpoint) (Homo sapiens, UniProt Q9NYL2) (Q9NYL2 whole entry): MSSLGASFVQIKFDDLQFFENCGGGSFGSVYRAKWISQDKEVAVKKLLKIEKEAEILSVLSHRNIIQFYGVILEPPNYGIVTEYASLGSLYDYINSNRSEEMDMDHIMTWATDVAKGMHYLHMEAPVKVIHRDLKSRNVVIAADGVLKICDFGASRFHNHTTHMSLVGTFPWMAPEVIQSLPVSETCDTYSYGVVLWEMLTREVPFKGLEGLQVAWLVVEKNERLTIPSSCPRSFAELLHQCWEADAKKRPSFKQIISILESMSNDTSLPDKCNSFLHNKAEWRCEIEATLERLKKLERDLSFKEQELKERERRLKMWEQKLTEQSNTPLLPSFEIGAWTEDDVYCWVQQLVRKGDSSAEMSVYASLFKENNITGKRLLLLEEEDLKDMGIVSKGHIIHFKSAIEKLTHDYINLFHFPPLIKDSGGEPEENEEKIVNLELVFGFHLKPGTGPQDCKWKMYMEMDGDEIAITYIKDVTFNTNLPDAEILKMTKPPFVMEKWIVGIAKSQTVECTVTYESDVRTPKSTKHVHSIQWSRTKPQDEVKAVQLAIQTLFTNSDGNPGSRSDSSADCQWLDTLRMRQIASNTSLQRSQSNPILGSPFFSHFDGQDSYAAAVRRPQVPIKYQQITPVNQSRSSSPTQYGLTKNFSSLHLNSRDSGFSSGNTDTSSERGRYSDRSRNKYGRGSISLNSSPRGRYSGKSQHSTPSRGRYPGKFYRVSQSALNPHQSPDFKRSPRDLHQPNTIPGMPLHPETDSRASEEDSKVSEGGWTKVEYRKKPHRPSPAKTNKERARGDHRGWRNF
Chain of panel of human kinases (kinase named in endpoint) (Homo sapiens, UniProt Q96BR1) (Q96BR1 whole entry): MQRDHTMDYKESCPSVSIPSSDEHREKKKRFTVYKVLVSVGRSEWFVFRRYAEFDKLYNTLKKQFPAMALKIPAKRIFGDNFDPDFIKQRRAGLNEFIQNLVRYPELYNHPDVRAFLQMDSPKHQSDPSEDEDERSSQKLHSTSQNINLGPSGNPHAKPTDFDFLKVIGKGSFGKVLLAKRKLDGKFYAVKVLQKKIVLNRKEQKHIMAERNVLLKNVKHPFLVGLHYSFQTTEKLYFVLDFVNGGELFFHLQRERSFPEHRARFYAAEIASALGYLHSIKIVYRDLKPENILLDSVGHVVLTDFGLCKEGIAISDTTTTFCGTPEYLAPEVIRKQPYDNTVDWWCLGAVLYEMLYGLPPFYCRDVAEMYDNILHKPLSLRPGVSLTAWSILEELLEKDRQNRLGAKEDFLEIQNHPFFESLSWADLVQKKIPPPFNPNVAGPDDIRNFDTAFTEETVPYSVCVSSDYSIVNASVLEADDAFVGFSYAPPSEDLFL
Chain of panel of human kinases (kinase named in endpoint) (Homo sapiens, UniProt P78362) (P78362 whole entry): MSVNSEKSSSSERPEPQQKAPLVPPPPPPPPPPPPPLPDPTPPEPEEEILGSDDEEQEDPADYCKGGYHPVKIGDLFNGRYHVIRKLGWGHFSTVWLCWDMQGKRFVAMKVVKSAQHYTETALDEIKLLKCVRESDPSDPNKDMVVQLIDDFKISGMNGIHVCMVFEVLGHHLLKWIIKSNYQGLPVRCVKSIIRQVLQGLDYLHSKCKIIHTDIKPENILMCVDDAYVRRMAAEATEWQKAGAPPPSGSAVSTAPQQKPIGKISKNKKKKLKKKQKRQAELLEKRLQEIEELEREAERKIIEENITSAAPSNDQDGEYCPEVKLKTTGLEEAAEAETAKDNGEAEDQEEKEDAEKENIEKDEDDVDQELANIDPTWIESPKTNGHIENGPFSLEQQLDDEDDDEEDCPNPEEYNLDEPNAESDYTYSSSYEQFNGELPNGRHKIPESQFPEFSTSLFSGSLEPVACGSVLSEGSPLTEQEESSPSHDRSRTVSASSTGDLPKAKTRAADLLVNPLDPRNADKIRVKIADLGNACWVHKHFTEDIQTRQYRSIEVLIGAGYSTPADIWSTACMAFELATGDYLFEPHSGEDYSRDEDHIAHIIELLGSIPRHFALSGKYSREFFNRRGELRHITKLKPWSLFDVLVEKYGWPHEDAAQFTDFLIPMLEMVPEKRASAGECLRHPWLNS
Chain of panel of human kinases (kinase named in endpoint) (Homo sapiens, UniProt Q13131) (Q13131 whole entry): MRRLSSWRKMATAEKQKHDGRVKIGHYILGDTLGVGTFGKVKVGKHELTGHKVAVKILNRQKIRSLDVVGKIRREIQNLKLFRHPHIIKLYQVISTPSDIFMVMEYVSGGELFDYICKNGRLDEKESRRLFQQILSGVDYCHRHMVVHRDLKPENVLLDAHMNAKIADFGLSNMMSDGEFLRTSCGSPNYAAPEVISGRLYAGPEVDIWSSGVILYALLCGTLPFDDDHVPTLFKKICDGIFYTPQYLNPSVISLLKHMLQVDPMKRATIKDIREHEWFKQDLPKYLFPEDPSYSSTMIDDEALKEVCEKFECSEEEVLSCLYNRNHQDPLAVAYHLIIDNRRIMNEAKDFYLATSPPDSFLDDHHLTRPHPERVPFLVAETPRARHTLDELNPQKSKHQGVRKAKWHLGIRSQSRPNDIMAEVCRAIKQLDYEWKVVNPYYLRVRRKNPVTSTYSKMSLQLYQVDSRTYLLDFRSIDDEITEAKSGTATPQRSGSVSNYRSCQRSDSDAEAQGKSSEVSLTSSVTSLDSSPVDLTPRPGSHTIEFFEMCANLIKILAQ
Chain of panel of human kinases (kinase named in endpoint) (Homo sapiens, UniProt O96013) (O96013 whole entry): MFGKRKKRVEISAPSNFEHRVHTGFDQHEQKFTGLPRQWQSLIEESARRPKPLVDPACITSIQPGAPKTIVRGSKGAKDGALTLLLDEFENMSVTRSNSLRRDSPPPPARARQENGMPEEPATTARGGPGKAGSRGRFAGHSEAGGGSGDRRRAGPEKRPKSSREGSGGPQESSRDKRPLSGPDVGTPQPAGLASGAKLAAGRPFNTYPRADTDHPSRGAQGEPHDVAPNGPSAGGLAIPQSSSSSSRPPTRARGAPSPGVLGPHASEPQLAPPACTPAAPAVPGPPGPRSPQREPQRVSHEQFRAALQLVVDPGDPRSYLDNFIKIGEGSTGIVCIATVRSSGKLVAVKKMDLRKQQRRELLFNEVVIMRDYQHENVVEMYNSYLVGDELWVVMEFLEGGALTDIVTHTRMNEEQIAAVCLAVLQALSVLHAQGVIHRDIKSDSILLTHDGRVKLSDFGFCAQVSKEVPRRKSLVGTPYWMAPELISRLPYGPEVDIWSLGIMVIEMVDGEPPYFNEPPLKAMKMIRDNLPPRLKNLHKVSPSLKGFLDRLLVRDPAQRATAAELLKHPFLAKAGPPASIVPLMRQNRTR

Question: Which activity at 10 µM [1] does the source give for `CC(C)C(=O)Nc1nc2cc(-c3ccc4c(c3)c(C(=O)NC(C)c3ccccc3)cn4C)ccn2n1` (centres unmarked) [RI-962] here?
Answer: The activity at 10 µM was 52%.

Question: And the activity at 10 µM [2]?
Answer: The activity at 10 µM was 83%.

Question: And the activity at 10 µM [3]?
Answer: Its activity at 10 µM is 92%.

Question: And the activity at 10 µM [4]?
Answer: Its activity at 10 µM is 94%.

Question: What about the activity at 10 µM [5] of the same compound?
Answer: The activity at 10 µM was 85%.

Question: What about the activity at 10 µM [6] of the same compound?
Answer: The activity at 10 µM was 100%.

Question: What about the activity at 10 µM [7] of the same compound?
Answer: The activity at 10 µM was 117%.

Question: What about the activity at 10 µM [8] of the same compound?
Answer: Its activity at 10 µM is 92%.

Question: What about the activity at 10 µM ([9]; read-out: Activity (%), PI3 Kinase (p110a/p65a)(h)) of the same compound?
Answer: Its activity at 10 µM is 97%.

Question: And the activity at 10 µM ([9]; read-out: Activity (%), PI3 Kinase (p110a/p85a)(h))?
Answer: Its activity at 10 µM is 94%.

Question: And the activity at 10 µM [10]?
Answer: The activity at 10 µM was 55%.

Question: And the activity at 10 µM [11]?
Answer: The activity at 10 µM was 103%.

Question: And the activity at 10 µM [12]?
Answer: The activity at 10 µM was 100%.

Question: What about the activity at 10 µM [13] of the same compound?
Answer: The activity at 10 µM was 93%.

Question: And the activity at 10 µM [14]?
Answer: The activity at 10 µM was 105%.

Question: And the activity at 10 µM [15]?
Answer: Its activity at 10 µM is 84%.

Question: What about the activity at 10 µM [16] of the same compound?
Answer: Its activity at 10 µM is 120%.

Question: And the activity at 10 µM [17]?
Answer: Its activity at 10 µM is 109%.

Question: And the activity at 10 µM [18]?
Answer: The activity at 10 µM was 89%.

Question: And the activity at 10 µM [19]?
Answer: Its activity at 10 µM is 132%.

Question: What about the activity at 10 µM [20] of the same compound?
Answer: Its activity at 10 µM is 120%.

Question: What about the activity at 10 µM [21] of the same compound?
Answer: Its activity at 10 µM is 72%.

Question: And the activity at 10 µM [22]?
Answer: Its activity at 10 µM is 99%.

Question: And the activity at 10 µM [23]?
Answer: The activity at 10 µM was 76%.

Question: What about the activity at 10 µM [24] of the same compound?
Answer: Its activity at 10 µM is 65%.

Question: And the activity at 10 µM [25]?
Answer: The activity at 10 µM was 149%.
